Values quoted from earlier work as cited in patent US20110142766A1, “Effervescent Multi-Vitamin Formulation and Methods of Use Thereof” (priority 2009, published 2011).

What was measured:
vision loss = conditions: group treated with zinc compared with a group treated with a placebo
[1] = system: age-related macular degeneration

[Zn] [zinc]
reduction in vision loss (vision loss): statistically significant reduction in vision loss
reduction of risk of (central) vision loss ([1]; people at high risk for developing advanced AMD): about 11%
reduction of risk of developing advanced stages of AMD ([1]; people at high risk for developing advanced AMD (intermediate AMD, or advanced AMD in one eye only)): about 21%
